Common to all, as to type: cell-based
One test has as its system Proteus vulgaris 0X 19US. In words: MIC against bacteria (Table I), strain (2). The source says:
(§1) Now, for illustrating the excellent pharmacological effects of the compounds of this invention, the values of MIC (γ/ml.) of the compounds against various bacteria are shown in Table 1, in which the compounds of this invention used are shown by example numbers.
(2) Proteus vulgaris 0X 19US

The test system of test [1] is Proteus mirabilis IXM OM-19. In words: MIC against bacteria (Table I), strain (3).
From the text: as §1
(3) Proteus mirabilis IXM OM-19

In test [2] the test system is Pseudomonas aeruginosa 99 (Gentamycin resistant). Kind of test: MIC against bacteria (Table I), strain (5).
From the text: as §1
(5) Pseudomonas aeruginosa 99 (Gentamycin resistant)

The test system of test [3] is Psuedomonas ovalis IMA 1002. Kind of test: MIC against bacteria (Table I), strain (6). To be noted: (6) Psuedomonas ovalis IMA 1002.
From the text: as §1
(6) Psuedomonas ovalis IMA 1002

For test [4], the system named is Escherichia coli kauffmann 0-1. Kind of test: MIC against bacteria (Table I), strain (7).
From the text: as §1
(7) Escherichia coli kauffmann 0-1

Test [5] has as its system Klebsiella pneumoniae ATCC 10031. Kind of test: MIC against bacteria (Table I), strain (8).
From the text: as §1
(8) Klebsiella pneumoniae ATCC 10031

The next test relates to Salmonella typhi H901 W. Kind of test: MIC against bacteria (Table I), strain (9).
From the text: as §1
(9) Salmonella typhi H901 W

The test system of another test is Salmonella enteritidis. Kind of test: MIC against bacteria (Table I), strain (10). To be noted: (10) Salmonella enteritidis.
From the text: as §1
(10) Salmonella enteritidis

For test [6], the system named is Shigella flexneri 2a 1675. In words: MIC against bacteria (Table I), strain (11). The note with it: 2A1675.
From the text: as §1

For the next test, the system named is Shigella sonnei II 37148. In words: MIC against bacteria (Table I), strain (12). The note with it: II37148.
From the text: as §1

The test system of test [7] is Bacillus megatherium 10778. In words: MIC against bacteria (Table I), strain (13).
From the text: as §1

For test [8], the system named is Bacillus subtilis ATCC 6633. Kind of test: MIC against bacteria (Table I), strain (14).
From the text: as §1
(14) Bacillus subtilis ATCC 6633

For test [9], the system named is Micrococcus flavus ATCC 10240. Kind of test: MIC against bacteria (Table I), strain (15).
From the text: as §1
(15) Micrococcus flavus ATCC 10240

Test [10] relates to Staphylococcus aureus 209P. Kind of test: MIC against bacteria (Table I), strain (16).
From the text: as §1
(16) Staphylococcus aureus 209P

The subject of test [11] is Staphylococcus Shimanishi. Kind of test: MIC against bacteria (Table I), strain (17).
From the text: as §1
(17) Staphylococcus Shimanishi

The subject of another test is Staphylococcus Onuma. In words: MIC against bacteria (Table I), strain (18).
From the text: as §1
(18) Staphylococcus Onuma

For another test, the system named is Proteus vulgaris OXK US. In words: MIC against bacteria (Table I), strain (1). The note with it: (1) Proteus vulgaris OXK US.
From the text: as §1
(1) Proteus vulgaris OXK US

Test [12] relates to Pseudomonas aeruginosa ATCC 8689. In words: MIC against bacteria (Table I), strain (4). To be noted: (4) Pseudomonas aeruginosa ATCC 8689.
From the text: as §1
(4) Pseudomonas aeruginosa ATCC 8689

Where [13] appears, read: 0X19US, (2) Proteus vulgaris 0X 19US, read-out: MIC.
Where [14] appears, read: IXMOM19, (3) Proteus mirabilis IXM OM-19, read-out: MIC.
Where [15] appears, read: (5) Pseudomonas aeruginosa 99 (Gentamycin resistant), read-out: MIC.
[16] abbreviates: Salmonella enterica, read-out: MIC.
Setting [17] is: (11) Shigella flexneri 2a 1675, read-out: MIC.
[18] abbreviates: (12) Shigella sonnei II 37148, read-out: MIC.
Setting [19] is: (13) Bacillus megatherium 10778, read-out: MIC.
[20] abbreviates: ATCC6633, (14) Bacillus subtilis ATCC 6633, read-out: MIC.
[21] abbreviates: ATCC10031, (8) Klebsiella pneumoniae ATCC 10031, read-out: MIC.
The mark [22] stands for this setting: ATCC10240, (15) Micrococcus flavus ATCC 10240, read-out: MIC.
Where [23] appears, read: (17) Staphylococcus Shimanishi, read-out: MIC.
The mark [24] stands for this setting: (18) Staphylococcus Onuma, read-out: MIC.

Converted amounts (≈) assume the structure as drawn. Where two headings read alike, the source gives them in different places.

As a reminder, the MIC is the least concentration at which growth counts as inhibited. On to `Cc1nc(SCC(=O)O)cc(SCC2=C(C(=O)O)N3C(=O)[C@@H](NC(=O)[C@H](NC(=O)c4cnccc4O)c4ccccc4)[C@H]3SC2)n1` [Example 17, 7-[D-α-(4-hydroxynicotinoylamido)-α-phenylacetamido]-3-(6-carboxymethylthio-2-methylpyrimidin-4-yl)thiomethyl-Δ^3-cephem-4-carboxylic acid], for which the MIC in the test with Proteus vulgaris 0X 19US (setting [13]) was 1.56 µg/mL (≈ 2.28 µM); in test [1] (setting [14]), 0.19 µg/mL (≈ 0.278 µM); in test [2] (setting [15]), 50 µg/mL (≈ 73.2 µM); in test [3] (read-out: MIC) it was 25 µg/mL (≈ 36.6 µM); in [4] (Escherichia coli), 6.25 µg/mL (≈ 9.15 µM); in [5] (Klebsiella pneumoniae, ATCC10031) it was 6.25 µg/mL (≈ 9.15 µM). In addition, the minimal inhibitory concentration (MIC) in the test on Salmonella typhi H901 W (Salmonella enterica, TYPHI) stood at 3.13 µg/mL (≈ 4.58 µM); in the test on Salmonella enteritidis (setting [16]) it was 0.19 µg/mL (≈ 0.278 µM); in [6] (setting [17]) it was 3.13 µg/mL (≈ 4.58 µM); in the test on Shigella sonnei II 37148 (setting [18]), 6.25 µg/mL (≈ 9.15 µM); in test [7] (setting [19]), 0.39 µg/mL (≈ 0.571 µM); in test [8] (setting [20]), 0.39 µg/mL (≈ 0.571 µM). Besides, the MIC worked out at 6.25 µg/mL (≈ 9.15 µM) in test [9] (Micrococcus flavus, ATCC10240); 0.19 µg/mL (≈ 0.278 µM) in [10] (Staphylococcus aureus, 209P); 6.25 µg/mL (≈ 9.15 µM) in [11] (Staphylococcus); 6.25 µg/mL (≈ 9.15 µM) in the test with Staphylococcus Onuma (Staphylococcus).

With `O=C(O)CSc1nnc2sc(SCC3=C(C(=O)O)N4C(=O)C(NC(=O)[C@H](NC(=O)c5cnccc5O)c5ccccc5)[C@H]4SC3)nn12` (stereo partly drawn) [Example 34, 7-[D-α-(4-hydroxynicotinoyl-amido)-α-phenylacetamido]-3-(5-carboxymethylthio-[1,2,4]-triazolo-[3,4-b]-[1,3,4]-thiadiazol-2yl)thiomethyl-Δ^3-cephem-4-carboxylic acid], the MIC with Proteus vulgaris OXK US is less than 0.09 µg/mL; in the test on Proteus vulgaris 0X 19US ((2) Proteus vulgaris 0X 19US) it was 0.78 µg/mL (≈ 1.09 µM); in [1] ((3) Proteus mirabilis IXM OM-19) it was 0.78 µg/mL (≈ 1.09 µM); in test [12], 25 µg/mL (≈ 35 µM); in [2] ((5) Pseudomonas aeruginosa 99 (Gentamycin resistant)), 12.5 µg/mL (≈ 17.5 µM); in [3], 25 µg/mL (≈ 35 µM). Also, the MIC was 12.5 µg/mL (≈ 17.5 µM) in [4] ((7) Escherichia coli kauffmann 0-1); 12.5 µg/mL (≈ 17.5 µM) in test [5] ((8) Klebsiella pneumoniae ATCC 10031); 6.25 µg/mL (≈ 8.74 µM) with Salmonella typhi H901 W ((9) Salmonella typhi H901 W); 1.56 µg/mL (≈ 2.18 µM) against Salmonella enteritidis; 0.78 µg/mL (≈ 1.09 µM) in [7] ((13) Bacillus megatherium 10778); 1.56 µg/mL (≈ 2.18 µM) in test [8] ((14) Bacillus subtilis ATCC 6633). Also, the minimum inhibitory concentration (MIC) in test [9] ((15) Micrococcus flavus ATCC 10240) worked out at 12.5 µg/mL (≈ 17.5 µM); in [10] ((16) Staphylococcus aureus 209P) it was 3.13 µg/mL (≈ 4.38 µM); in test [11] ((17) Staphylococcus Shimanishi) it was 12.5 µg/mL (≈ 17.5 µM); against Staphylococcus Onuma ((18) Staphylococcus Onuma) it was 25 µg/mL (≈ 35 µM).

Consider `COc1cc(O)ncc1C(=O)N[C@@H](C(=O)N[C@@H]1C(=O)N2C(C(=O)O)=C(CSc3nnc(SCC(=O)O)s3)CS[C@H]12)c1ccccc1` [Example 28, 7-[D-α-(6-hydroxy-4-methoxynicotinoylamido)-α-phenylacetamido]-3-(5-carboxymethylthio-1,3,4-thiadiazol-2-yl)thiomethyl-Δ^3-cephem-4-carboxylic acid], for which the MIC with Proteus vulgaris 0X 19US (setting [13]) amounted to 12.5 µg/mL (≈ 17.7 µM); in test [1] (setting [14]) it was 6.25 µg/mL (≈ 8.87 µM); in test [2] (Pseudomonas aeruginosa), 25 µg/mL (≈ 35.5 µM); in test [3] (read-out: MIC) it was 50 µg/mL (≈ 70.9 µM); in test [4] (Escherichia coli), 25 µg/mL (≈ 35.5 µM); in test [5] (setting [21]) it was 50 µg/mL (≈ 70.9 µM). Also, the MIC against Salmonella typhi H901 W (Salmonella enterica, TYPHI) was determined as 50 µg/mL (≈ 70.9 µM); in the test on Salmonella enteritidis (setting [16]), 12.5 µg/mL (≈ 17.7 µM); in test [6] (setting [17]) it was 25 µg/mL (≈ 35.5 µM); in the test on Shigella sonnei II 37148 (setting [18]), 25 µg/mL (≈ 35.5 µM); in test [7] (setting [19]), 6.25 µg/mL (≈ 8.87 µM); in test [8] (setting [20]) it was 12.5 µg/mL (≈ 17.7 µM). Besides, the MIC worked out at 12.5 µg/mL (≈ 17.7 µM) in test [9] (setting [22]); 12.5 µg/mL (≈ 17.7 µM) in test [10] ((16) Staphylococcus aureus 209P, read-out: MIC); 100 µg/mL (≈ 142 µM) in test [11] (setting [23]); 100 µg/mL (≈ 142 µM) in the test with Staphylococcus Onuma (setting [24]).

For `Cc1cncc(C(=O)N[C@@H](C(=O)N[C@@H]2C(=O)N3C(C(=O)O)=C(CSc4nnc(SCC(=O)O)s4)CS[C@H]23)c2ccccc2)c1O` [Example 27, 7-[D-α-(4-hydroxy-3-methylpyridin-5-ylcarboxamido)-α-phenylacetamido]-3-(5-carboxymethylthio-1,3,4-thiadiazol-2-yl)thiomethyl-Δ^3-cephem-4-carboxylic acid], the MIC was less than 0.09 µg/mL in the test on Proteus vulgaris OXK US (read-out: MIC); 0.78 µg/mL (≈ 1.13 µM) in the test on Proteus vulgaris 0X 19US (Proteus vulgaris, 0X19US); 0.78 µg/mL (≈ 1.13 µM) in test [1] (Proteus mirabilis, IXMOM19); 12.5 µg/mL (≈ 18.1 µM) in test [12] (ATCC8689, read-out: MIC); 6.25 µg/mL (≈ 9.07 µM) in test [2] (setting [15]); 25 µg/mL (≈ 36.3 µM) in test [3] (read-out: MIC). Besides, the MIC was 3.13 µg/mL (≈ 4.54 µM) in [4] (Escherichia coli); 1.56 µg/mL (≈ 2.26 µM) in [5] (setting [21]); 0.78 µg/mL (≈ 1.13 µM) with Salmonella typhi H901 W (Salmonella enterica, TYPHI); 0.78 µg/mL (≈ 1.13 µM) in test [6] (Shigella flexneri); 3.13 µg/mL (≈ 4.54 µM) against Shigella sonnei II 37148 (Shigella sonnei); 0.78 µg/mL (≈ 1.13 µM) in [7] (Bacillus, 10778). Further, the MIC in test [8] (Bacillus subtilis, ATCC6633) stood at 0.78 µg/mL (≈ 1.13 µM); in test [9] (setting [22]), 6.25 µg/mL (≈ 9.07 µM); in test [10] (Staphylococcus aureus, 209P) it was 1.56 µg/mL (≈ 2.26 µM); in [11] (setting [23]), 6.25 µg/mL (≈ 9.07 µM); in the test with Staphylococcus Onuma (setting [24]), 6.25 µg/mL (≈ 9.07 µM).

The record behind these values is US4068074A, “Cephalosporin derivatives having at the 3-position of the cephem ring a heterocyclic thiomethyl group with a carboxy or sulfo group and at the 7-position of the cephem ring an α-heterocylic acylaminophenyl-acetamide group” (priority 1974, dated 1978).
